Assay results published in patent publication US20170035049A1, “BIOCIDAL PRODUCTS” (SALVECO, priority 2014, published 2017).

Assay: Ultimate aerobic biodegradability in aqueous medium (OECD 301 A)
Conditions: on the fourteenth day
Description: This test is an evaluation in an aqueous medium of the ultimate aerobic biodegradability of a sample of the concentrated formulation according to the invention. This test is performed according to the provisions of the OECD 301 A method using a sample containing a dissolved organic carbon content of 10 mg/l (DOC for dissolved organic carbon). The evolution of the disappearance of dissolved organic carbon is followed during a period of 28 days in the “Concentrated disinfection” test at 10 mg/l of DOC. The physical-chemical analysis is performed according to the ASTM […] standard. The attached FIG. 1 represents the resulting curves of degradation of the organic carbon dissolved after 28 days. The reference substance corresponds to sodium acetate.

## CC(=O)[O-].[Na+] [sodium acetate]
  percentage of degradation of the reference substance: 99%
